Some test systems named below: UACC-257; HCC 2998; M19-MEL; NCI-H460; OVCAR-4; RXF 393; SF-539; M14; NCI-H23; OVCAR-5; SW-620; OVCAR-3; SNB-75; HCT-116; UACC-62; LOX IMVI; A498; MDA-MB-231; MDA-N; BT-549.
Holding throughout (assay): NCI-60 cell line screen, 48 h

Each structure is given as a SMILES string.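 Each compound was tested at five concentrations against cells in 96-well plates for 48 hours. The concentration for 50% growth inhibition is given as GI50.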 Calls of active or inactive are those of the source. Rule as the data show it: active = GI50 up to about 1.1 µM and inactive = higher.

We go through twelve molecules from ChEMBL document CHEMBL1201862, “PubChem BioAssay data set” (2004).

With `N#Cc1cccc(C2C(=O)c3ccc(C(=O)c4ccc5c(c4)C(=O)N(c4ccc(Oc6ccc(N7C(=O)c8ccc(C(=O)c9ccc%10c(c9)C(=O)N(c9cccc(C#N)c9)C%10=O)cc8C7=O)cc6)cc4)C5=O)cc3C2=O)c1` (configuration not stated), the GI50 in the assay with UACC-257, with HCC 2998, with M19-MEL, in the assay with NCI-H460, with OVCAR-4 and in the assay with RXF 393 was > 100 µM (inactive) in each case. Further, the GI50 with SF-539, with M14, in the assay with NCI-H23, with OVCAR-5, in the assay on SW-620 and in the assay with OVCAR-3 was > 100 µM (inactive) throughout. Also, the GI50 in the assay on SNB-75, in the assay on HCT-116 and in the assay with UACC-62 was > 100 µM (inactive) in each case.
Regarding `CCCCNC(=S)Nn1c(-c2ccccc2)nc2ccccc2c1=O`, the GI50 is > 100 µM (inactive) in the assay on UACC-257; 92.5 µM (inactive) in the assay with M19-MEL; 74.1 µM (inactive) with LOX IMVI; > 100 µM (inactive) in the assay on NCI-H460; > 100 µM (inactive) in the assay with OVCAR-4; > 100 µM (inactive) with A498. Further, the GI50 was 24 µM (inactive) in the assay on RXF 393; > 100 µM (inactive) in the assay on SF-539; > 100 µM (inactive) in the assay with M14; > 100 µM (inactive) in the assay on NCI-H23; > 100 µM (inactive) in the assay with OVCAR-5; > 100 µM (inactive) in the assay on SW-620. The GI50 is 41.7 µM (inactive) in the assay on SNB-75, > 100 µM (inactive) in the assay on HCT-116 and > 100 µM (inactive) in the assay on UACC-62.
`COc1ccc(/C=C/C(=O)c2cc(C(C)(C)C)c(O)c(C(C)(C)C)c2)cc1OC`: the GI50 in the assay on MDA-MB-231 was 6.4 µM (inactive); with UACC-257, 5.12 µM (inactive); in the assay on HCC 2998, 2.27 µM (inactive); in the assay with LOX IMVI it was 8.75 µM (inactive); with NCI-H460 it was 5.52 µM (inactive); in the assay on OVCAR-4, 5.9 µM (inactive). Further, the GI50 in the assay on A498 is 15 µM (inactive); in the assay with RXF 393 it was 2.86 µM (inactive); in the assay with SF-539, 12.7 µM (inactive); with M14, 25.3 µM (inactive); with NCI-H23, 12.1 µM (inactive); in the assay with OVCAR-5 it was 25.2 µM (inactive). Moreover, the GI50 is 4.32 µM (inactive) in the assay with SW-620; 4.97 µM (inactive) in the assay on OVCAR-3; 3.01 µM (inactive) in the assay on SNB-75; 2.94 µM (inactive) with MDA-N; 4.25 µM (inactive) in the assay on HCT-116; 10 µM (inactive) in the assay with UACC-62. The GI50 with BT-549 is 5.24 µM (inactive).
Turning to `Nn1c(-c2ccccc2)nc2ccc(Br)cc2c1=O`, the GI50 in the assay with UACC-257 is > 100 µM (inactive); in the assay with HCC 2998 it was 62.7 µM (inactive); in the assay on M19-MEL it was 89.5 µM (inactive); with NCI-H460, 61.4 µM (inactive); with OVCAR-4, 28.6 µM (inactive); in the assay on A498, 70.5 µM (inactive). The GI50 with SF-539 was 53.8 µM (inactive); with M14, 54.1 µM (inactive); in the assay with NCI-H23, 81.5 µM (inactive); in the assay on OVCAR-5 it was > 100 µM (inactive); with SW-620, 46.6 µM (inactive); in the assay with OVCAR-3, 24 µM (inactive). Moreover, the GI50 is > 100 µM (inactive) in the assay with SNB-75, 35.3 µM (inactive) with HCT-116 and 45.9 µM (inactive) in the assay on UACC-62.
Regarding `CNNC1=NS(=O)(=O)c2cc(C#N)c(Cl)cc2S1`, the GI50 in the assay on MDA-MB-231, in the assay with UACC-257, with HCC 2998, in the assay on LOX IMVI, with NCI-H460 and with OVCAR-4 was > 10 µM (inactive) throughout. For the same molecule, the GI50 with A498, in the assay with RXF 393, in the assay on SF-539, in the assay on M14, in the assay with NCI-H23 and with OVCAR-5 was > 10 µM (inactive) each time. Besides, the GI50 in the assay with SW-620, in the assay on OVCAR-3, in the assay with SNB-75, in the assay with MDA-N, with HCT-116 and in the assay with UACC-62 was > 10 µM (inactive) each time. For the same molecule, the GI50 in the assay on BT-549 was > 10 µM (inactive).
Regarding `COC(=O)C1(C(=O)OC)CC(=O)c2cc3c(cc2-c2c(cc(OC)c(OC)c2OC)C1)OCO3`, the GI50 in the assay on UACC-257 was 139 µM (inactive); in the assay with HCC 2998, > 211 µM (inactive); with M19-MEL, > 211 µM (inactive); in the assay with LOX IMVI, > 211 µM (inactive); in the assay with NCI-H460, > 211 µM (inactive); in the assay with RXF 393, 54.7 µM (inactive). Moreover, the GI50 was > 211 µM (inactive) in the assay with SF-539; > 211 µM (inactive) in the assay on NCI-H23; 88.3 µM (inactive) in the assay with OVCAR-5; > 211 µM (inactive) in the assay on SW-620; 98.2 µM (inactive) in the assay on OVCAR-3; 111 µM (inactive) in the assay with HCT-116. In addition, the GI50 in the assay with UACC-62 is 109 µM (inactive).
In the case of `CC1CC(=O)c2c(ccc3c2C(=O)c2cccc(O)c2C3=O)C1` (configuration not stated), the GI50 with UACC-257 was 5.89 µM (inactive); in the assay on HCC 2998, 10.4 µM (inactive); with M19-MEL, 1.41 µM (inactive); with LOX IMVI, 4.47 µM (inactive); in the assay on NCI-H460, 4.62 µM (inactive); with OVCAR-4, 12.4 µM (inactive). Moreover, the GI50 in the assay on A498 was 14 µM (inactive); in the assay with SF-539, 14.8 µM (inactive); with M14, 1.97 µM (inactive); in the assay with NCI-H23 it was 5.26 µM (inactive); in the assay on OVCAR-5, 20.6 µM (inactive); in the assay with SW-620, 4.25 µM (inactive). In addition, the GI50 was 3.46 µM (inactive) in the assay with OVCAR-3, 10.4 µM (inactive) with SNB-75, 5.08 µM (inactive) in the assay on HCT-116 and 8.53 µM (inactive) with UACC-62.
As to `O=C1C(Cl)C(c2cccc(O)c2)N1n1cnc2ccccc2c1=O` (configuration not stated), the GI50 in the assay with UACC-257, in the assay on HCC 2998, in the assay on M19-MEL, in the assay with LOX IMVI, in the assay with NCI-H460 and in the assay with OVCAR-4 was > 100 µM (inactive) throughout. Further, the GI50 in the assay with RXF 393, in the assay with M14, in the assay with NCI-H23, in the assay with OVCAR-5, in the assay with SW-620 and with OVCAR-3 was > 100 µM (inactive) throughout. Besides, the GI50 in the assay with SNB-75 is 27.9 µM (inactive); with HCT-116, 89.9 µM (inactive); with UACC-62, > 100 µM (inactive).
For the molecule `CCCC(O)c1ccc2[nH]c3c(C)cc([N+](=O)[O-])c(C)c3c2c1` (configuration not stated), the GI50 in the assay with UACC-257, in the assay on HCC 2998, in the assay on M19-MEL, in the assay on LOX IMVI, in the assay on NCI-H460 and in the assay on OVCAR-4 was > 100 µM (inactive) throughout. The GI50 in the assay on SF-539 is > 100 µM (inactive); in the assay on M14 it was > 100 µM (inactive); with NCI-H23, > 100 µM (inactive); in the assay with OVCAR-5, > 100 µM (inactive); in the assay on SW-620 it was 99.1 µM (inactive); in the assay with OVCAR-3, 83.2 µM (inactive). The GI50 with SNB-75 and in the assay on HCT-116 was > 100 µM (inactive) each time.
For `O=C(Oc1ccc2c(-c3ccccc3)c(C(=O)Nc3ccc(Cl)cc3)c(=O)oc2c1)c1ccccc1`, the GI50 with UACC-257, in the assay with M19-MEL, with LOX IMVI, in the assay with NCI-H460, in the assay on RXF 393 and in the assay on SF-539 was > 100 µM (inactive) throughout. Further, the GI50 was > 100 µM (inactive) with M14; > 100 µM (inactive) with NCI-H23; > 100 µM (inactive) with SW-620; > 100 µM (inactive) in the assay with OVCAR-3; 52.2 µM (inactive) with SNB-75; > 100 µM (inactive) in the assay with HCT-116. In the assay with UACC-62, the GI50 was > 100 µM (inactive).
Turning to `Nc1nc(O)c2[nH]nnc2n1` [8-AZAGUANINE], the GI50 in the assay with MDA-MB-231 is 5.82 µM (inactive); with UACC-257 it was 0.735 µM (active); in the assay on HCC 2998, 19.2 µM (inactive); in the assay on LOX IMVI it was 0.223 µM (active); in the assay on NCI-H460 it was 11.4 µM (inactive); in the assay on OVCAR-4, 12.9 µM (inactive). The GI50 with A498 was 11.6 µM (inactive); with RXF 393, 0.143 µM (active); in the assay with SF-539 it was 0.361 µM (active); with M14, 0.292 µM (active); in the assay with NCI-H23 it was 25.1 µM (inactive); in the assay with OVCAR-5, 21.9 µM (inactive). Further, the GI50 in the assay on SW-620 was 0.306 µM (active); in the assay on OVCAR-3, 16 µM (inactive); in the assay with SNB-75, 1.54 µM (inactive); with MDA-N it was 0.308 µM (active); in the assay on HCT-116, 0.881 µM (active); in the assay on UACC-62, 0.372 µM (active). Moreover, the GI50 in the assay on BT-549 was 0.473 µM (active).
As to `O[C@H]1[C@H]2c3cc4c(cc3CN3CCC(=C[C@@H]1O)[C@H]23)OCO4` [LYCORINE], the GI50 in the assay with MDA-MB-231 was 1.65 µM (inactive); in the assay with UACC-257 it was 0.65 µM (active); with HCC 2998, 2.33 µM (inactive); in the assay on LOX IMVI, 0.971 µM (active); with NCI-H460 it was 1.26 µM (inactive); in the assay with OVCAR-4, 1.34 µM (inactive). Further, the GI50 was 2.96 µM (inactive) in the assay on A498; 0.3 µM (active) in the assay with RXF 393; 1.8 µM (inactive) in the assay on SF-539; 1.86 µM (inactive) with M14; 2.42 µM (inactive) in the assay with NCI-H23; 2.5 µM (inactive) with OVCAR-5. The GI50 was 2.61 µM (inactive) in the assay on SW-620; 2.47 µM (inactive) in the assay on OVCAR-3; 3.13 µM (inactive) in the assay with SNB-75; 2.59 µM (inactive) in the assay on MDA-N; 1.26 µM (inactive) in the assay on HCT-116; 2.08 µM (inactive) in the assay on UACC-62. Also, the GI50 in the assay on BT-549 was 1.66 µM (inactive).
